Experimental data as given in patent US7179588B1, “Assay for the detection of paclitaxel resistant cells in human tumors” (Board of Regents of the University of Texas System, priority 1999, dated 2007).
“Also recorded” adds a separate entry of the source. Read-outs that look alike come from different tables or passages of the source.

Key:
[1] = tested on: paclitaxel dependent cell line Tax-18; assay: Cross-resistance growth assay in 24 well dishes, Tax-18; details: for Rescue of growth of drug-dependent Tax-18: no growth without drug
Protocol: Wild-type CHO cells (WT), Taxol resistant mutant Tax 5-6 (Tax^R), and Taxol dependent mutant Tax 18 (Tax^D) were seeded into replicate wells of 24 well dishes at a density of approximately 100 cells per well in increasing concentrations of Taxol or Taxotere as indicated (in μg/ml). The cells were grown 7 days and then stained with methylene blue.

[2] = tested on: Taxol resistant mutant Tax 5-6; assay: Cross-resistance growth assay in 24 well dishes, Tax 5-6; type: cell-based, Chinese hamster; details: about 100 cells per well, grown 7 days
[3] = tested on: paclitaxel-resistant cells; details: frequently observed; cited from earlier work
[4] = tested on: KB3 cervical carcinoma cell line; details: preliminary evidence
[5] = tested on: CHO cell line tTApuro 6.6 transfected with HAβ1L215H cDNA; assay: Cloning efficiencies of HAβ1L215H transfected cells under selective conditions; type: cell-based, Chinese hamster; details: for Number of colonies relative to G418+tetracycline, arbitrarily set at 100 / Cloning efficiency (colonies under selective conditions divided by colonies in αMEM+tetracycline): 2 mg/ml G418 or 0.2 μg/ml paclitaxel; for Cloning efficiency (colonies under selective conditions divided by colonies in αMEM+tetracycline): 6–10 d
Protocol: (§1) The ability of β-tubulin mutations to confer paclitaxel resistance was evaluated in 2 ways. In the first, stably transfected cell lines expressing mutant HAβ1-tubulin were seeded at approximately 100 cells/well in replicate wells of a 24-well dish containing increasing concentrations of paclitaxel. The assay was carried out in duplicate with only one set containing 1 μg/ml tetracycline. After 6–7 d, the medium was removed and the resistant colonies were stained with a solution of 0.1% methylene blue as previously described (Cabral, F., Sobel, M. E., and Gottesman, M. M. (1980) Cell 20, 29–36). In a second assay, aliquots (˜7×10^4 cells for selective, and ˜100 cells for non-selective conditions) from total transfected cell populations were seeded into duplicate 6-well dishes containing normal medium (non-selective), 2 mg/ml G418, or 0.2 μg/ml paclitaxel, each with or without 1 μg/ml tetracycline. After the appearance of visible colonies (6–7 d), one duplicate dish was stained with methylene blue and colonies were counted. Cells in the second dish were trypsinized and replated onto glass coverslips for immunofluorescence observation.
To rule out the possibility that we may have biased the results by examining specific clones of mutant HAβ1-tubulin expressing cells, we also tested the relative abilities of G418 and paclitaxel to select mutant HAβ1-tubulin positive cells from the total transfected cell populations. We reasoned that paclitaxel should be a powerful agent for selection of mutant HAβ1-tubulin expressing cells if, and only if, the mutant tubulin is capable of conferring resistance to the drug. To test this prediction, aliquots from an HAβ1L215H transfected cell population were grown under 6 different conditions: normal medium, medium containing 2 mg/ml G418, and medium containing 0.2 μg/ml paclitaxel, each in the presence or absence of 1 μg/ml tetracycline. Using the number of colonies obtained under nonselective conditions (normal medium containing tetracycline) as a control, the relative cloning efficiencies under the various selective conditions are summarized in Table II.
In Table II, CHO cell line tTApuro 6.6 was transfected with HAβ1L215H cDNA. At 24 h post-transfection, the cells were trypsinized and replated in normal medium (αMEM), medium containing 2 mg/ml G418, or medium containing 0.2 μg/ml paclitaxel, all either in the presence or absence of 1 μg/ml tetracycline. After 6–10 d (when visible colonies were seen) the cells were stained with methylene blue and the surviving colonies were counted. The cloning efficiency was calculated as the number of colonies obtained under selective conditions (G418 or paclitaxel) divided by the number of colonies obtained under nonselective conditions (αMEM+tetracycline). Numbers in parentheses are the number of colonies obtained relative to G418+tetracycline which was arbitrarily set at 100.

[6] = tested on: HAβ1L215H transfected CHO cells; assay: Immunofluorescence for HA tag in drug-selected HAβ1L215H transfected populations; type: cell-based, Chinese hamster
Protocol: FIG. 8 depicts paclitaxel selects for transfected cells that express mutant HAβ1-tubulin. Cells transfected with HAβ1L215H cDNA were selected for resistance to G418 (A, B) or paclitaxel (C, D) either in the presence (A, C) or absence (B, D) of 1 μg/ml tetracycline. The total resistant cell population was then trypsinized and replated for 24 h in medium without tetracycline or paclitaxel before processing for immunofluorescence with an antibody specific for the HA tag. Arrows in B and C indicate cells that were positive for HAβ1L215H-tubulin expression. Approximately 50% of the cells in panel A, and 100% of the cells in panel D were positive for expression. Bar=10 μm.
Cells were grown on glass coverslips to approximately 70% of confluence and fixed in methanol (−20° C.) for at least 10 min as previously described (Gonzalez-Garay, M. L., and Cabral, F.). The primary antibody used for most experiments was mouse monoclonal 12CA5 (Boehringer Mannheim Corp., Indianapolis, Ind.), specific for the HA tag. This was followed by fluorescein conjugated goat antimouse IgG (Cappel). […]
The ability of β-tubulin mutations to confer paclitaxel resistance was evaluated in 2 ways. […] After the appearance of visible colonies (6–7 d), one duplicate dish was stained with methylene blue and colonies were counted. […]

[7] = tested on: CHO cells transfected with HAβ1, HAβ1L215H, HAβ1L217R or HAβ1L228F; assay: Paclitaxel dose response of stably transfected cell lines with or without tetracycline (24-well, methylene blue); type: cell-based, Chinese hamster; details: for Sensitivity to paclitaxel: cells transfected with mutant HAβ1-tubulin
Protocol: FIG. 7 depicts mutant HAβ1-tubulins confer paclitaxel resistance. Approximately 100 cells were seeded into replicate wells of 24-well dishes containing the indicated concentrations of paclitaxel (in ng/ml) with (“+”) or without (“−”) 1 μg/ml tetracycline. The cells were allowed to grow for 6–7 d and were then stained with methylene blue. The cell lines came from transfections with HAβ1 (A), HAβ1L215H (B), HAβ1L217R (C), or HAβ1L228F (D).
as §1
Measurement of drug resistance using a standard cloning efficiency assay was complicated by the observation that clones producing moderate to high levels of mutant HAβ1-tubulin grew poorly and produced many multinucleated cells. This problem was circumvented in 2 different ways. The first came from an observation that among the multinucleated cells, there were some cells that still looked normal. […]

[8] = tested on: CHO cells transfected with HAβ1, HAβ1G38E, HAβ1L217R or HAβ1L228F cDNAs; assay: Direct selection of paclitaxel resistant transfected cells; type: cell-based, Chinese hamster
Protocol: as §1

[9] = tested on: Paclitaxel Resistant CHO Cells
Protocol: Metabolic labeling was for 1 h in methionine-free MEM (ICN Biomedicals Inc., Costa Mesa, Calif.) containing 30 μCi/ml Tran ^35S-label (1,000 Ci/mmol; ICN Biomedicals).

wild-type CHO cells = assay: Lethality of paclitaxel to wild-type cells; type: cell-based, Chinese hamster; details: tetracycline-free medium
Protocol: Measurement of drug resistance using a standard cloning efficiency assay was complicated by the observation that clones producing moderate to high levels of mutant HAβ1-tubulin grew poorly and produced many multinucleated cells. This problem was circumvented in 2 different ways. The first came from an observation that among the multinucleated cells, there were some cells that still looked normal. […] To select these cells, clones transfected with mutant HAβ1-tubulin were incubated in tetracycline-free medium containing a concentration of paclitaxel (0.2 μg/ml) that is lethal to wild-type cells. Multiple individual colonies were selected and tested for their dose response to paclitaxel; representative results are shown in FIG. 7. […] Thus HAβ1, HAβ1L215H, HAβ1L217R, and HAβ1L228F expressing cells were all tested for paclitaxel sensitivity in the presence or absence of tetracycline.

[10] = tested on: paclitaxel resistant human ovarian cells; details: gradually selected to higher levels of resistance; cited from earlier work

CC(=O)O[C@@]12CO[C@@H]1C[C@H](O)[C@@]1(C)C(=O)[C@H](O)C3=C(C)[C@@H](OC(=O)[C@H](O)[C@@H](NC(=O)OC(C)(C)C)c4ccccc4)C[C@@](O)([C@@H](OC(=O)c4ccccc4)[C@H]21)C3(C)C [Taxotere]
Resistance of Tax-18 to cytotoxic effects compared to wild-type cells [1]: resistant | Rescue of growth of drug-dependent Tax-18 ([1]; grown 7 d): rescued | Resistance of Tax 5-6 compared to wild-type cells [2]: more resistant

CC[C@]1(O)C[C@@H]2CN(CCc3c([nH]c4ccccc34)[C@@](C(=O)OC)(c3cc4c(cc3OC)N(C)[C@H]3[C@@](O)(C(=O)OC)[C@H](OC(C)=O)[C@]5(CC)C=CCN6CC[C@]43[C@@H]65)C2)C1 [vinblastine]
Sensitivity of paclitaxel-resistant cells to the drug [3]: increased sensitivity; also recorded: hypersensitive | Drug sensitivity of paclitaxel-selected mutant KB3 cells [4]: hypersensitive

CN[C@@H]1[C@@H](O)[C@@H](O[C@@H]2[C@@H](O)[C@H](O[C@H]3O[C@H]([C@@H](C)O)[C@@H](O)[C@H](O)[C@H]3N)[C@@H](N)C[C@H]2N)OC[C@]1(C)O [G418]
Number of colonies relative to G418+tetracycline, arbitrarily set at 100 ([5]; +Tetracycline 1 μg/ml): 100 | Cloning efficiency (colonies under selective conditions divided by colonies in αMEM+tetracycline) ([5]; +Tetracycline 1 μg/ml): 1.3 × 10^−3 | Lowering of selection efficiency under inducing conditions (no tetracycline) versus with tetracycline ([5]; G418 2 mg/ml): about 40% | Number of colonies relative to G418+tetracycline, arbitrarily set at 100 ([5]; −Tetracycline): 60 | Cloning efficiency (colonies under selective conditions divided by colonies in αMEM+tetracycline) ([5]; −Tetracycline): 7.9 × 10^−4 | HA-positive cells in the selected population ([6]; selected under inducing conditions (no tetracycline)): < 10%

CC(=O)O[C@H]1C(=O)[C@@]2(C)[C@H]([C@H](OC(=O)c3ccccc3)[C@]3(O)C[C@H](OC(=O)[C@H](O)[C@@H](NC(=O)c4ccccc4)c4ccccc4)C(C)=C1C3(C)C)[C@]1(OC(C)=O)CO[C@@H]1C[C@@H]2O [Paclitaxel, paclitaxel]
Sensitivity to paclitaxel, HAβ1 expressed versus not expressed ([7]; HAβ1 (wild-type) transfected cells, with or without tetracycline): same sensitivity | Sensitivity to paclitaxel ([7]; grown with tetracycline): wild-type paclitaxel sensitivity | Sensitivity to paclitaxel ([7]; grown without tetracycline): clear resistance | Paclitaxel resistant cells obtained by direct selection ([8]; HAβ1L217R and HAβ1L228F cDNAs): many paclitaxel resistant colonies | Paclitaxel resistant cells obtained by direct selection ([8]; HAβ1 or HAβ1G38E cDNAs, repeated three times): no paclitaxel resistant cells were obtained | Drug sensitivity of paclitaxel-selected mutant KB3 cells [4]: resistant | Rescue of growth of drug-dependent Tax-18 ([1]; grown 7 d): rescued | Resistant or Dependent ([9]; cell line Tax 1–4, β-tubulin L215H): R | Resistant or Dependent ([9]; cell line Tax 1–19, β-tubulin L215R): R | Resistant or Dependent ([9]; cell line Tax 4–9, β-tubulin L215H): R | Resistant or Dependent ([9]; cell line Tax 6–9, β-tubulin L217R): R | Fold resistance to paclitaxel of cell lines selected in one step ([9]; single-step selection with a single lethal dose of paclitaxel): 2-3 fold | Concentration lethal to wild-type cells (wild-type CHO cells): 0.2 µg/mL | Selection under inducing conditions less efficient than G418 with tetracycline ([5]; 0.2 μg/ml paclitaxel, no tetracycline): 5 times | Fewer colonies under non-inducing conditions than under inducing conditions ([5]; 0.2 μg/ml paclitaxel, with tetracycline): 18 fold | Number of colonies relative to G418+tetracycline, arbitrarily set at 100 ([5]; +Tetracycline 1 μg/ml): 1 | Cloning efficiency (colonies under selective conditions divided by colonies in αMEM+tetracycline) ([5]; +Tetracycline 1 μg/ml): 1.4 × 10^−5 | Number of colonies relative to G418+tetracycline, arbitrarily set at 100 ([5]; −Tetracycline): 18 | Cloning efficiency (colonies under selective conditions divided by colonies in αMEM+tetracycline) ([5]; −Tetracycline): 2.3 × 10^−4 | Fold resistance versus unselected cells [10]: 24 fold | HA-positive cells in the selected population ([6]; selected under non-inducing conditions (with tetracycline), assayed following induction): < 5% | Resistance of Tax 5-6 compared to wild-type cells [2]: more resistant

C/C(=C\c1csc(C)n1)[C@@H]1C[C@@H]2O[C@]2(C)CCC[C@H](C)[C@H](O)[C@@H](C)C(=O)C(C)(C)[C@@H](O)CC(=O)O1 [epothilone-B]
Resistance of Tax-18 to cytotoxic effects compared to wild-type cells ([1]; grown 7 d, stained with methylene blue): more resistant | Rescue of growth of drug-dependent Tax-18 ([1]; grown 7 d): rescued

CC[C@]1(O)C[C@H]2CN(CCc3c([nH]c4ccccc34)[C@@](C(=O)OC)(c3cc4c(cc3OC)N(C=O)[C@H]3[C@@](O)(C(=O)OC)[C@H](OC(C)=O)[C@]5(CC)C=CCN6CC[C@]43[C@@H]65)C2)C1 [vincristine]
Sensitivity of paclitaxel-resistant cells to the drug [3]: hypersensitive

COc1cc2c(c(OC)c1OC)-c1ccc(OC)c(=O)cc1[C@@H](NC(C)=O)CC2 [colchicine]
Sensitivity of paclitaxel-resistant cells to the drug [3]: increased sensitivity
